Three compounds from patent US20110034487A1, “CXCR3 ANTAGONISTS” (AMGEN INC., priority 2009, published 2011) can be followed below.

Each structure is given as a SMILES string.

Series [1] relates to lymphocyte migration toward I-TAC. In words: Lymphocyte migration toward I-TAC. It is filed as cell-based. The note with it: 100% human plasma, read-out: Migration to ITAC IC50 (nM) 100% Plasma.
The nature of series [2]: Multiple dosing of AMG 487 in humans. Format: in vivo, human. An excerpt: Thus, there remains a need to identify a suitable clinical candidate devoid of the unpredicted accumulation seen with AMG 487. Such compounds are provided herein.
The target of series [3] is T1, CXCR3 (Homo sapiens, UniProt P49682).
T1 construct: endogenous in cells
T1 sequence (P49682 1-368): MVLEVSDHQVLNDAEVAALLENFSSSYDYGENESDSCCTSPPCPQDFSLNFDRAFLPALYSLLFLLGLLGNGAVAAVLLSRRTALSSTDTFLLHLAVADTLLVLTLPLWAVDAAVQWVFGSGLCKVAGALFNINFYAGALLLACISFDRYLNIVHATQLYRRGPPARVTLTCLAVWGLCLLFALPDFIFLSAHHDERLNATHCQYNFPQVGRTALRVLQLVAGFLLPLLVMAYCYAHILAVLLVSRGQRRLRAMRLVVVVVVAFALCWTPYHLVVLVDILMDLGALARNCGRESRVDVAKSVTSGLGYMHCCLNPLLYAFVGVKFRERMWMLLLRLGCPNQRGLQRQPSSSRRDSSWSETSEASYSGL
Description: [125I]-IP-10 binding assay (CXCR3 binding). As to the method: (§1) Unless otherwise noted, all reagents used are available from commercial sources (e.g., Sigma). Test compounds are diluted in DMSO to a concentration that is 40-times the intended final assay concentration; 5 μL are transferred to each well of a 96-well flat-bottomed polypropylene plate (e.g., from Greiner, Inc.). The cells were resuspended in assay buffer (25 mM Hepes, 80 mM NaCl, 1 mM CaCl2, 5 mM MgCl2, 0.2% bovine serum albumin, pH 7.1, stored at 4° C.) at 5 million cells per mL; 100 μL of this cell suspension is then transferred to each well of a 96-well plate containing the diluted test compounds. ^125I-labelled chemokine (purchased from commercial sources, e.g., Amersham, PE Life Sciences) is diluted in assay buffer to a concentration of approximately 60 pM; 100 μL of this chemokine solution is transferred to each well of a 96-well plate containing compounds and cell suspension. The plates are sealed with commercially available foil plate seals (e.g., from E&K Scientific), and stored at 4° C. for 2 to 4 h, shaking gently. […] The plates are counted on a scintillation counter, such as a Packard TopCount. […] Data were analyzed using commercially available software (e.g., Excel from Microsoft, Prism from GraphPad Software Inc.).

Series [4] concerns the target T1, CXCR3. In words: 125I-I-TAC binding assay (CXCR3 binding). The note with it: 50% human plasma; primary, activated human lymphocytes. Here is the method:
as §1

In series [5] the target is T1, CXCR3. Description: HWB receptor occupancy (500 ng/ml ITAC). It is filed as cell-based.
The subject of series [6] is cellular migration into the lung. Description: Cellular migration into the lung following bleomycin challenge. It is filed as in vivo. To be noted: following bleomycin challenge (FIG. 1).
Another series addresses CYP3A4 (Homo sapiens, UniProt P08684). To be noted: human hepatocytes and microsomes.

Chain of CYP3A4 (P08684 whole entry): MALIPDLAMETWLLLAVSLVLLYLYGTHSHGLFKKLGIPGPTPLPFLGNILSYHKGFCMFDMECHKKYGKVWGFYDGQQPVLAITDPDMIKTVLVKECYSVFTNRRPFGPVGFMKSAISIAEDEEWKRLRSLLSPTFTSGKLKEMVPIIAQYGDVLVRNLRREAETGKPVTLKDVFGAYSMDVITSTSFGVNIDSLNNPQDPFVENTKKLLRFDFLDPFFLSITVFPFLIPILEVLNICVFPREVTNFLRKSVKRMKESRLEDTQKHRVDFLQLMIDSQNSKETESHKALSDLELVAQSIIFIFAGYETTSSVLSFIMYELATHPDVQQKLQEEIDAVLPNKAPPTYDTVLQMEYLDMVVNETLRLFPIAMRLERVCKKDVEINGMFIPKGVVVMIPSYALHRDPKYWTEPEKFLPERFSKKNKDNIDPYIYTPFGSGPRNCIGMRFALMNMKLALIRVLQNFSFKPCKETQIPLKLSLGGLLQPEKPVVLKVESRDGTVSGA

As to `CCOc1ccc(-n2c([C@@H](C)N(Cc3cccnc3)C(=O)Cc3ccc(OC(F)(F)F)cc3)nc3ncccc3c2=O)cc1` [AMG 487, reference compound], in series [1], the IC50 is 346 ± 123 nM. In series [2], the “Accumulation of the compound upon multiple dosing” value is “dose-dependent accumulation”.
Take `C[C@H](c1nc2ncccc2c(=O)n1-c1ccc(Cl)cc1)N(CC1CCS(=O)(=O)CC1)C(=O)Cc1ccc(C(F)(F)F)c(F)c1` [Compound 1]: the IC50 at CXCR3 [3] ([125I]-IP-10 Binding IC50 (nM) 50% Plasma, 50% human plasma, primary, activated human lymphocytes) was 12 ± 5 nM; on CXCR3 [3] (buffer, read-out: [125I]-IP-10 Binding IC50 (nM) Buffer), 7 ± 2 nM; on CXCR3 [4] it was 51 ± 20 nM; in series [1], 65 ± 14 nM; against CXCR3 [5], 9.8 ± 4.4 nM. In addition, in series [6], the “Cellular migration into the lung” value is reported as “inhibits cellular migration into the lung”.
Regarding `CC(c1nc2ncccc2c(=O)n1-c1ccc(O)cc1)N(Cc1cccnc1)C(=O)Cc1ccc(OC(F)(F)F)cc1` (stereo not drawn) [Compound M2], the CYP3A4 inhibition result on CYP3A4 was “time-dependent inhibitor of CYP3A4”.
